The values that follow come from patent publication US5157052A, “Method for inhibiting IgE production” (priority 1990, dated 1992).

The experiment has as its system IgE. The experiment can be described thus: Serum IgE response induced by FF1-4D5 + H∂A1 anti-IgD antibodies (ELISA, Assay A / Assay F). It is filed as in vivo, mouse (Balb/c female). In short, it runs like this:
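Transient IgE response induced in female Balb/c mice (10–20 weeks) by a day-0 i.v. or s.c. injection of 100 μg each of anti-IgD FF1-4D5 and H.δA1. Serum IgE measured by sandwich ELISA (B1E3 capture, biotinylated R1E4 detection, avidin-biotin-HRP/ABTS), quantified against an IgE standard curve corrected for serum dilution.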

The mark [1] stands for this setting: Table 12, 20 μg days 3 and 4, day 8 (control 11398).

Consider `CCCCC(C)(O)C/C=C/[C@H]1[C@H](O)CC(=O)[C@@H]1C/C=C\CCCC(=O)OC` (mixture of isomers) [(±) methyl 11α,16-dihydroxy-16-methyl-9-oxoprosta-5Z,13E-dien-1-oate], for which the “Serum IgE ± SD” value runs as follows: (0.5 μg IP 4x daily days 3 and 4, day 7) 7813 ± 588 ng/mL; (0.5 μg IP 4x daily days 3 and 4, day 8) 5699 ± 322 ng/mL; (0.5 μg IP 4x daily days 3 and 4, day 9) 6097 ± 249 ng/mL; (0.5 μg IP 4x daily days 3 and 4, day 11) 2049 ± 1201 ng/mL; (0.5 μg IP 4x daily days 3 and 4, day -1 baseline before treatment) 839 ± 44 ng/mL; (1.0 μg IP 3x daily days 3 and 4, day 7 (control 8850)) 4974 ± 1232 ng/mL. The “Serum IgE ± SD” value reads like this: (1.0 μg IP 3x daily days 3 and 4, day 8 (control 7557)) 4595 ± 663 ng/mL; (1.0 μg IP 3x daily days 3 and 4, day 9 (control 6458)) 4602 ± 771 ng/mL; (1.0 μg IP 3x daily days 3 and 4, day 11 (control 1466)) 1326 ± 241 ng/mL; (1.0 μg IP 3x daily days 3 and 4, day -1 baseline before treatment) 808 ± 17 ng/mL; (1.0 μg IP 4x daily days 3 and 4, day 7) 5549 ± 1044 ng/mL; (1.0 μg IP 4x daily days 3 and 4, day 8) 3051 ± 475 ng/mL. Also, the “Serum IgE ± SD” value by setting is: (1.0 μg IP 4x daily days 3 and 4, day 9) 4383 ± 832 ng/mL; (1.0 μg IP 4x daily days 3 and 4, day 11) 1506 ± 794 ng/mL; (1.0 μg IP 4x daily days 3 and 4, day -1 baseline before treatment) 1197 ± 272 ng/mL; (2.0 μg IP 3x daily days 3 and 4, day 7) 5598 ± 1875 ng/mL; (2.0 μg IP 3x daily days 3 and 4, day 8) 3057 ± 331 ng/mL; (2.0 μg IP 3x daily days 3 and 4, day 9) 3644 ± 1179 ng/mL. The “Serum IgE ± SD” value runs as follows: (2.0 μg IP 3x daily days 3 and 4, day 11) 1279 ± 377 ng/mL; (2.0 μg IP 3x daily days 3 and 4, day -1 baseline before treatment) 800 ± 10 ng/mL; (2.0 μg IP 4x daily days 3 and 4, day 7) 5483 ± 717 ng/mL; (2.0 μg IP 4x daily days 3 and 4, day 8) 3236 ± 599 ng/mL; (2.0 μg IP 4x daily days 3 and 4, day 9) 3987 ± 401 ng/mL; (2.0 μg IP 4x daily days 3 and 4, day 11) 1925 ± 410 ng/mL. For the same molecule, the “Serum IgE ± SD” value is, setting by setting: (2.0 μg IP 4x daily days 3 and 4, day -1 baseline before treatment) 1019 ± 206 ng/mL; (5 μg IP on days 1,2, day 8 (control 19549)) 9753 ± 4566 ng/mL; (5 μg IP on days 1,2, day 9 (control 17498)) 10678 ± 8402 ng/mL; (5 μg IP on days 1,2, day 11 (control 5317)) 2355 ± 709 ng/mL; (5 μg IP on days 1,2, day -1 baseline before treatment) 1344 ± 135 ng/mL; (5 μg IP on days 2,3, day 8 (control 19549)) 6233 ± 1948 ng/mL. Moreover, the “Serum IgE ± SD” value is, setting by setting: (5 μg IP on days 2,3, day 9 (control 17498)) 5328 ± 1811 ng/mL; (5 μg IP on days 2,3, day 11 (control 5317)) 2139 ± 396 ng/mL; (5 μg IP on days 2,3, day -1 baseline before treatment) 1293 ± 88 ng/mL; (5 μg IP on days 3,4, day 8 (control 19549)) 4683 ± 1247 ng/mL; (5 μg IP on days 3,4, day 9 (control 17498)) 4505 ± 1155 ng/mL; (5 μg IP on days 3,4, day 11 (control 5317)) 1865 ± 361 ng/mL. Moreover, the “Serum IgE ± SD” value by setting is: (5 μg IP on days 3,4, day -1 baseline before treatment) 1517 ± 166 ng/mL; (5 μg IP on days 4,5, day 8 (control 19549)) 7969 ± 1821 ng/mL; (5 μg IP on days 4,5, day 9 (control 17498)) 7145 ± 1763 ng/mL; (5 μg IP on days 4,5, day 11 (control 5317)) 2316 ± 496 ng/mL; (5 μg IP on days 4,5, day -1 baseline before treatment) 1644 ± 560 ng/mL; (10.0 μg IP 3x daily days 3 and 4, day 7) 3223 ± 1717 ng/mL. The “Serum IgE ± SD” value (10.0 μg IP 3x daily days 3 and 4, day 8) was 1705 ± 859 ng/mL; the “Serum IgE ± SD” value (10.0 μg IP 3x daily days 3 and 4, day 9) came out at 1233 ± 601 ng/mL; the “Serum IgE ± SD” value (10.0 μg IP 3x daily days 3 and 4, day 11) stood at 1116 ± 276 ng/mL; the “Serum IgE ± SD” value (10.0 μg IP 3x daily days 3 and 4, day -1 baseline before treatment) was found to be 849 ± 77 ng/mL; the “Serum IgE ± SD” value (10.0 μg IP 4x daily days 3 and 4, day 7) turned out to be 2092 ± 605 ng/mL; the “Serum IgE ± SD” value (10.0 μg IP 4x daily days 3 and 4, day 8) is 1884 ± 598 ng/mL. The “Serum IgE ± SD” value was 1991 ± 834 ng/mL (10.0 μg IP 4x daily days 3 and 4, day 9); 1429 ± 361 ng/mL (10.0 μg IP 4x daily days 3 and 4, day 11); 1040 ± 211 ng/mL (10.0 μg IP 4x daily days 3 and 4, day -1 baseline before treatment); 998 ± 146 ng/mL (40 μg IP 3x daily days 3 and 4, day 7); 1214 ± 181 ng/mL (40 μg IP 3x daily days 3 and 4, day 8); 1119 ± 135 ng/mL (40 μg IP 3x daily days 3 and 4, day 9). For the same molecule, the “Serum IgE ± SD” value (40 μg IP 3x daily days 3 and 4, day 11) worked out at 1110 ± 249 ng/mL; the “Serum IgE ± SD” value (40 μg IP 3x daily days 3 and 4, day -1 baseline before treatment) was found to be 822 ± 39 ng/mL; the “Serum IgE ± SD” value (40.0 μg IP 4x daily days 3 and 4, day 7) was 1037 ± 237 ng/mL; the “Serum IgE ± SD” value (40.0 μg IP 4x daily days 3 and 4, day 8) was determined as 1152 ± 388 ng/mL; the “Serum IgE ± SD” value (40.0 μg IP 4x daily days 3 and 4, day 9) worked out at 870 ± 83 ng/mL; the “Serum IgE ± SD” value (40.0 μg IP 4x daily days 3 and 4, day 11) was found to be 1028 ± 302 ng/mL. Further, the “Serum IgE ± SD” value (40.0 μg IP 4x daily days 3 and 4, day -1 baseline before treatment) came out at 929 ± 97 ng/mL. Besides, the “Mean IgE ± SD” value is 5401 ± 883 ng/mL (2 μg IP 4x daily days 3 and 4, day 8 (controls 14083-15890)); 1294 ± 232 ng/mL (2 μg IP 4x daily days 3 and 4, day -1 baseline before treatment); 5076 ± 378 ng/mL (5 μg IP 4x daily days 3 and 4, day 8 (controls 14083-15890)); 1292 ± 185 ng/mL (5 μg IP 4x daily days 3 and 4, day -1 baseline before treatment); 2661 ± 504 ng/mL (10 μg IP 4x daily days 3 and 4, day 8 (controls 14083-15890)); 1382 ± 135 ng/mL (10 μg IP 4x daily days 3 and 4, day -1 baseline before treatment). The “Mean IgE ± SD” value came to 1608 ± 272 ng/mL (20 μg IP 4x daily days 3 and 4, day 8 (controls 14083-15890)); 1308 ± 204 ng/mL (20 μg IP 4x daily days 3 and 4, day -1 baseline before treatment); 1217 ± 344 ng/mL (40 μg IP 4x daily days 3 and 4, day 8 (controls 14083-15890)); 1114 ± 324 ng/mL (40 μg IP 4x daily days 3 and 4, day -1 baseline before treatment); 1026 ± 387 ng/mL (Group D, unstimulated (PBS on day 0), 40 μg (text: 20 μg) IP days 3 and 4, day 8); 1289 ± 10 ng/mL (Group D, unstimulated (PBS on day 0), 40 μg (text: 20 μg) IP days 3 and 4, day -1 baseline before treatment). Moreover, the “reduction in IgE production” value (2 μg IP, day 8) was “about 62%”. Also, the “IgE inhibition regardless of day of administration” value (5 μg IP) is on record as “regardless on what day the prostaglandin was administered IgE production (synthesis) was inhibited”. In addition, the “duration of IgE suppression” value (5 μg IP) is “IgE production was still suppressed even after 11 days”. Moreover, where the note is “5 μg IP”, the “optimal day of administration for inhibition of IgE” value was “IgE production is inhibited optimally when administered on day 3 and 4”. For the same molecule, the “inhibition of de novo IgE synthesis in vivo” value (20 μg days 3 and 4) is given as “de nouo IgE synthesis is inhibited”. Besides, the “inhibition of serum IgE synthesis” value (2-40 μg IP days 3 and 4) is given as “reduces IgE production in a dose dependent manner”. Further, the “IgE inhibition, 3 vs 4 times a day” value (IP days 3 and 4) is given as “equally effective at inhibiting IgE production in a dose dependent manner whether administered 3 times a day or 4 times a day”. The “dosage at which maximum inhibition is obtained” value (IP days 3 and 4) was found to be 40.0 µg. The “lowest dosage at which some inhibition is obtained” value (IP days 3 and 4) amounted to 1.0 µg. Also, the “IgE ± SD” value was found to be 1206 ± 119 ng/mL (Table 9, 20 μg IP days 3 and 4, day 8 (control 3539)); 1015 ± 70 ng/mL (Table 9, 20 μg IP days 3 and 4, day -1 baseline before treatment).

In the case of `CCCCC(C)(O)C/C=C/[C@H]1[C@H](O)CC(=O)[C@@H]1CCC1CC1CCC(=O)OC` (relative stereo) [(±) methyl 2-[2-[3R-3α-hydroxy-2β-(4-hydroxy-4-methyl-1E-octenyl)-5-oxo-1α-cyclopentyl]ethyl]cyclopropanepropanoate], where the note is “20 μg days 3 and 4, Example 23”, the “de novo IgE synthesis” value is “inhibit de novo IgE synthesis”. Further, the “IgE ± SD” value under setting [1] was 3034 ± 878 ng/mL.

In the case of `CCCCC(C)(O)C/C=C/[C@H]1[C@H](O)CC(=O)[C@@H]1CC1CC1CCCC(=O)OC` (relative stereo) [(±) methyl 2-[2-[3R-3α-hydroxy-2β-(4-hydroxy-4-methyl-1E-octenyl)-5-oxo-1α-cyclopentyl]methyl]cyclopropanebutanoate], where the note is “20 μg days 3 and 4, Example 23”, the “de novo IgE synthesis” value is on record as “inhibit de novo IgE synthesis”. The “IgE ± SD” value under setting [1] was found to be 2750 ± 318 ng/mL.

Turning to `CCCCC(C)(O)C/C=C/[C@H]1[C@H](O)CC(=O)[C@@H]1C/C=C\C=CCC(=O)OC` (relative stereo) [(±) methyl 11α,16-dihydroxy-16-methyl-9-oxoprosta-3,5Z,13-trien-1-oate], the “de novo IgE synthesis” value (20 μg days 3 and 4, Example 25) is recorded as “inhibit de novo IgE synthesis”. In addition, under “Table 14, 20 μg days 3 and 4, day 8 (control 6071)”, the “IgE ± SD” value was 1176 ± 137 ng/mL.
